Assay results as given in publication PMC9027957, “Interspecies Comparisons of the Effects of Potential Antiviral 3-Amidinophenylalanine Derivatives on Cytochrome P450 1A2 Isoenzyme” (Veterinary Sciences, 2022).

Legend:
[1] = biological target: T1, CYP1A2 (Rattus norvegicus, UniProt P04799); experiment: CYP1A2 fluorometric activity assay in rat hepatic microsomes; type: in vitro ADME, rat (Sprague–Dawley); set-up: Rat (Sprague–Dawley) and beagle (Gibco, Biocenter, Szeged, Hungary, protein concentration: 20 mg/mL) hepatic microsomal preparations; tissue Gibco, Biocenter, Szeged, Hungary; host or cells: liver (hepatic microsomes), Sprague-Dawley rat; conditions: 15 min at 37 °C
T1 sequence (P04799 1-513): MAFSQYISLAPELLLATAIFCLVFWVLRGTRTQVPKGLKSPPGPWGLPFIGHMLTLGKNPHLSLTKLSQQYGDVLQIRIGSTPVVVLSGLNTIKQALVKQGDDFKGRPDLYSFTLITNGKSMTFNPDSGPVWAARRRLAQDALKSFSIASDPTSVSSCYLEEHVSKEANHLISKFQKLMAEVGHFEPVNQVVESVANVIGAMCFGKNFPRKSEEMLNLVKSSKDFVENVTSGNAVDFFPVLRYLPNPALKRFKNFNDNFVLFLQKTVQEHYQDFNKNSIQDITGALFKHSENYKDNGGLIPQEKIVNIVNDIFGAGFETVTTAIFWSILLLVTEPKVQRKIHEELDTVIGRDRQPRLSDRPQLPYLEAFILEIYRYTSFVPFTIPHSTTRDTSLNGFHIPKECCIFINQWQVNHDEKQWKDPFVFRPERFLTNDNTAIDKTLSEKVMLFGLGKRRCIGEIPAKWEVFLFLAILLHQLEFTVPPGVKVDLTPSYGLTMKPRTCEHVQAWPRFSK
Experimental: (§1) The Biovision CYP assay (BioVision, Inc., Kampenhout, Belgium) utilizes a non-fluorescent CYP1A2 substrate capable of transforming into a highly fluorescent metabolite, which can be detected in the visible range. α-naphthoflavone was used as a CYP1A2 reference inhibitor at 6 µM during the experiments. Rat (Sprague–Dawley) and beagle (Gibco, Biocenter, Szeged, Hungary, protein concentration: 20 mg/mL) hepatic microsomal preparations were prepared separately by mixing 25 µL of the obtained rat or beagle microsomal suspension with 2425 µL assay buffer and with 50 µL NADPH generating system (100×). In the case of the cynomolgus monkey microsomal suspension (Primacyt, Schwerin, Germany, protein concentration: 5 mg/mL), the following volumes were applied: in addition to 100 µL of monkey microsomal suspension, the amount of assay buffer and the NADPH generating system were adjusted in order to ensure the original ratios of these components to reach a final volume of 2500 µL. Rat, beagle, and cynomolgus monkey microsomal suspension aliquots (50 µL) were treated with the protease inhibitor 20 µL, 0–1000 µM), the reference compound α-naphthoflavone (20 µL, 30 µM), or the assay buffer without test compounds (20 µL, background control) for 15 min at 37 °C. After incubation, 30 µL of the appropriate CYP1A2 substrate/NADP+ mixture was added to each well, yielding a final reaction volume of 100 µL/well. The protein contents of the obtained microsomes were analysed using bicinchoninic acid protein assay kit (Pierce BCA kit, Thermo Fisher Scientific, Waltham, MA, USA). […] The fluorescence intensities were measured with a fluorometer (Victor X2 2030, Perkin Elmer, Waltham, MA, USA), using λEx/Em = 406/468 nm.

[2] = 60 min microsomal stability assay (UPLC-MS/MS), rat liver microsomes; type: in vitro ADME; conditions: rat microsomes, 50 µM, 0.6 mg/mL protein, mean ± SD (n = 3)
Experimental: (§2) Rat, beagle (Gibco, Biocenter, Szeged, Hungary), and cynomolgus monkey (Primacyt, Schwerin, Germany) liver microsomes were exposed to inhibitors MI-432, MI-463, MI-482, or MI-1900 at 50 µM for 60 min. The final microsomal protein concentration in the suspension was 0.6 mg/mL in each case. The reaction buffer (100 mM phosphate buffer pH 7.4) also contained 1 mM nicotinamide adenine dinucleotide phosphate (NADPH), 5 mM MgCl2, 10 mM glucose-6-phosphate (G6P), and 2 IU/mL glucose-6-phosphate dehydrogenase (G6PD). The reaction was terminated by the addition of ice-cold acetonitrile (ACN) with the ratio of sample ACN volume = 1:2. The precipitated protein was removed by centrifugation at 10,000× g for 10 min, and the supernatants were used for subsequent analyses.
(§3) The determination of all analytes was carried out using an UPLC/MS/MS system, which consisted of an HPLC apparatus (SCIEX ExionLC^TM UPLC, Framigham, MA, USA) and a SCIEX Qtrap 4500 triple-quadrupole mass spectrometer (Framigham, MA, USA) equipped with a SCIEX Turbo V electrospray ionization source. The HPLC columns used were LiChrospher RP Select B (125 × 4.0 mm, 5.0 μm, C8 stationary phase). Next, 0.1% trifluoroacetic acid in ultra-purified water (A) and acetonitrile (B) were used as mobile phases for chromatographic separations applying a gradient elution. The HPLC gradient program was the following: between 0 and 10 min, a ratio of 70% A and 30% B; from 10 to 20 min, linearly increasing to a ratio of 50% A and 50% B; from 20 to 21 min, maintained at a ratio of 50% A and 50% B; from 21 to 22 min, linearly decreasing back to a ratio of 70% A and 30% B; and between 22 min and 30 min, maintained at a ratio of 70% A and 30% B. The run time was 30 min, the column temperature was adjusted to 35 °C, and the flow rate was 1 mL/min.

[3] = biological target: T2, CYP1A2 (Macaca fascicularis, UniProt O77809); experiment: CYP1A2 fluorometric activity assay in cynomolgus monkey hepatic microsomes; type: in vitro ADME; set-up: cynomolgus monkey microsomal suspension (Primacyt, Schwerin, Germany, protein concentration: 5 mg/mL); tissue Primacyt, Schwerin, Germany; host or cells: liver (hepatic microsomes); conditions: for CYP1A2 in the cynomolgus monkey microsomal model: inhibitors at 50 µM
T2 sequence (O77809 1-516): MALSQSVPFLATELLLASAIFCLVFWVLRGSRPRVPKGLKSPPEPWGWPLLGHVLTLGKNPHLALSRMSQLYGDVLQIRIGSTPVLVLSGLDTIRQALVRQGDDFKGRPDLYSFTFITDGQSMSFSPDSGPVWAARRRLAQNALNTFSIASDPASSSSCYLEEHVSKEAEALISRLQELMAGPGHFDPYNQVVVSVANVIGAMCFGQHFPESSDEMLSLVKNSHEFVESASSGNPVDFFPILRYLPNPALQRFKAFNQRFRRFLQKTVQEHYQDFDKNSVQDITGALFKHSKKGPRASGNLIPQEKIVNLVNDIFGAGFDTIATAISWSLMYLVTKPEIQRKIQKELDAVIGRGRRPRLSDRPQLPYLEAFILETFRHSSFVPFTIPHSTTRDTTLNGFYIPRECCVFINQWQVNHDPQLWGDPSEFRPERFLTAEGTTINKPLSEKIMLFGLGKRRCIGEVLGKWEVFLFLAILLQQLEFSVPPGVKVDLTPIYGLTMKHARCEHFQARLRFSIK
Experimental: as §1

[4] = 60 min microsomal stability assay (UPLC-MS/MS), beagle liver microsomes; type: in vitro ADME; conditions: beagle microsomes, 50 µM, 0.6 mg/mL protein, mean ± SD (n = 3)
Experimental: as §2, §3

[5] = 60 min microsomal stability assay (UPLC-MS/MS), cynomolgus monkey liver microsomes; type: in vitro ADME; conditions: monkey microsomes, 50 µM, 0.6 mg/mL protein, mean ± SD (n = 3)
Experimental: as §2, §3

[6] = biological target: T3, CYP1A2 (Canis lupus familiaris, UniProt P56592); experiment: CYP1A2 fluorometric activity assay in beagle hepatic microsomes; type: in vitro ADME; conditions: 15 min at 37 °C
T3 construct: endogenous in cells; host or cells: beagle hepatocytes
T3 sequence (P56592 1-512): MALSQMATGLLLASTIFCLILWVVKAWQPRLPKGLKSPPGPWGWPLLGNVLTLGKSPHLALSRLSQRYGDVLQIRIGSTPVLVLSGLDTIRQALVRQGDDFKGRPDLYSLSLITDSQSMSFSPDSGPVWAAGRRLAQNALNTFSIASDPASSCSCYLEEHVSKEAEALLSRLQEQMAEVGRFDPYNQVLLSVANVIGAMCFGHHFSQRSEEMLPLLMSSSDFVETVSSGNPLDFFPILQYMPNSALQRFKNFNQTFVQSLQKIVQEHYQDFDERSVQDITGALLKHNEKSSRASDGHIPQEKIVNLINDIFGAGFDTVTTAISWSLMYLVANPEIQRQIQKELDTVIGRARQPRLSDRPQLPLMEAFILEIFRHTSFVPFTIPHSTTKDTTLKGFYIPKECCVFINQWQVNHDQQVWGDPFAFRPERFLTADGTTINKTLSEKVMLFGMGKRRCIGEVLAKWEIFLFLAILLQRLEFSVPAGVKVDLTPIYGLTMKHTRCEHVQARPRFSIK
Experimental: as §1

[7] = biological target: T1, CYP1A2; experiment: CYP1A2 luminescent (P450-Glo) activity assay in rat hepatocytes; type: cell-based; set-up: endogenous in cells; host or cells: rat hepatocytes; conditions: positive control at 10 µM
Experimental: (§4) For the measurements of CYP1A2 activities, hepatocytes were grown on 24-well collagen-coated membrane inserts (Costar Transwell-PTFE membrane, 6.5 mm, pore size: 0.4 µm, Merck, Darmstadt, Germany). […] The determination of the CYP1A2 activities were performed using the P450-Glo CYP450 Assay (Promega, Madison, WI, USA) according to the manufacturer’s instructions.

[8] = biological target: T3, CYP1A2; type: cell-based; conditions: dog, 10 µM
Experimental: as §4

[9] = biological target: T2, CYP1A2; conditions: 10 µM
Experimental: as §4

[10] = inhibitors at 50 µM, vs untreated control

Compound	rat hepatic microsomal CYP1A2 isoenzyme activity [1, 10]	depletion percentage of the parent compound [2] [%]	IC50 [3] [nM]	CYP1A2 in the cynomolgus monkey microsomal model [3]	depletion percentage of the parent compound [4] [%]	depletion percentage of the parent compound [5] [%]	beagle hepatic microsomal CYP1A2 isoenzyme activity [6, 10]	rat hepatic microsomal CYP1A2 isoenzyme activity ([1]; reference inhibitor at 6 µM)	beagle hepatic microsomal CYP1A2 isoenzyme activity ([6]; reference inhibitor at 6 µM)	CYP1A2 activity in rat hepatocytes [7]	CYP1A2 activity in beagle hepatocytes [8]	CYP1A2 activity in cynomolgus monkey hepatocytes [9]
COc1ccc(-c2cccc(S(=O)(=O)N[C@@H](Cc3cccc(C(=N)N)c3)C(=O)N3CCC(NC(=O)NC4CCCCC4)CC3)c2)c(OC)c1 [MI-463]	suppressed	15.1 ± 6.5	2400 ± 1400	inhibited	15.7 ± 8	17.7 ± 4.6	–	–	–	–	–	–
N=C(N)c1cccc(C[C@H](NS(=O)(=O)c2cccc(-c3cc(CO)ccc3Cl)c2)C(=O)N2CCC(CCNC(=O)NC3CCCCC3)CC2)c1 [MI-482]	did not inhibit CYP1A2 function	31.4 ± 1.1	210 ± 90	inhibited	39.3 ± 6	15.1 ± 7.3	reduced the activity of CYP1A2	–	–	–	–	–
O=c1cc(-c2ccccc2)oc2c1ccc1ccccc12 [α-naphthoflavone, reference compound]	–	–	–	–	–	–	–	significantly suppressed CYP1A2 activities	significantly suppressed CYP1A2 activities	significantly suppress CYP1A2 activities	significantly suppress CYP1A2 activities	significantly suppress CYP1A2 activities
